Test results reported in patent US6713056B1, “Combined preparation for the treatment of neoplasic diseases or of infectious diseases” (I.D.M. Immuno-Designed Molecules, priority 1998, dated 2004).

How the values were obtained:
[1] = system: human carcinoma solid tumors; experiment: Nude mice with human carcinoma solid tumors: cytotoxic drugs, then activated human macrophages, then the same drugs; type: in vivo; settings: after macrophage injection; drugs used alone or in combination
Text: 2) Nude mice inoculated with human carcinoma solid tumors are initially treated with cytotoxic drugs (Adriamycin, Etretinate, Taxotere), used alone or in combination.

[2] = system: 16R-OV1/DDP human ovary cancer cell line; experiment: Survival of cisplatin-resistant ovary cancer cells grown with MAK for 24 hours, then with cisplatin (FIG. 3); type: cell-based; settings: cisplatin alone at maximal dose 10^-3 M
Experimental: The percentage of tumor cell survival is measured according to the method described in “Feasibility of drug screening with panels of human tumor cell lines using a microculture tetrazolium assay” (Alley M. C., Scudiero D. A., Monks A., et al.; Cancer Res., 1988, 48: 489-501), and is plotted against the dose of cisplatin (abscissa) in the test tube (molar concentration).
FIG. 3 represents the percentage of cellular survival as a function of cisplatin concentration (M).
The curve with hollow circles corresponds to the use of cisplatin alone.
The plain curve corresponds to the use of MAK alone.
The curve with black squares corresponds to the use of the combination of MAK followed by cisplatin.
The curve with hollow triangles corresponds to the theoretical additive curve of a treatment with MAK alone and a treatment with cisplatin alone.
16R-OV1/DDP human ovary cancer cell line was rendered resistant to cisplatinum by continuous exposure to increasing concentrations of cisplatin (Fajac A., et al. Cisplatin induced apoptosis and p.53 gene status in a cisplatin resistant human ovarian carcinoma cell line. Int. J. Cancer 68, 67-74, 1996). The cells are grown at 37° C., 5% CO2 in RPMI 1640 medium in the presence of activated human macrophages (MAK) during 24 hours and then with cisplatin at increasing concentrations. […]

solid carcinoma = experiment: Mice bearing solid carcinoma: apoptosis-inducing drug plus monocyte derived cells; type: in vivo, C57B16 mice; settings: drug intraperitoneally, 24 h later 0.1 million monocyte derived cells in tumor periphery; seen only after combined treatment
Experimental: 7) C57B16 mice bearing solid carcinoma are injected intraperitonealy with a drug inducing apoptosis (1 mg mitomycin C or 0.1 mg sodium butyrate). After 24 h, mice are injected with 0.1 million monocyte derived cells in tumor periphery. […] In another protocol, carcinoma cells are treated in vitro with 0.01 mM sodium butyrate, and then submitted to phagocytosis by murine monocyte derived cells.

Row | SMILES | effect of second treatment with the same cytotoxic drugs (subcutaneous tumor size) [1] | tumor outcome after combined treatment (solid carcinoma) | further results
1 | COc1cccc2c1C(=O)c1c(O)c3c(c(O)c1C2=O)C[C@@](O)(C(=O)CO)C[C@@H]3O[C@H]1C[C@H](N)[C@H](O)[C@H](C)O1 [Adriamycin] | further antitumoral effect | – | –
2 | N.N.[Cl][Pt][Cl] [Cisplatin, cisplatin] | – | – | inhibition of survival [2]: 35%
3 | CCOC(=O)/C=C(C)/C=C/C=C(C)/C=C/c1c(C)cc(OC)c(C)c1C [Etretinate] | further antitumoral effect | – | –
4 | CC(=O)O[C@@]12CO[C@@H]1C[C@H](O)[C@@]1(C)C(=O)[C@H](O)C3=C(C)[C@@H](OC(=O)[C@H](O)[C@@H](NC(=O)OC(C)(C)C)c4ccccc4)C[C@@](O)([C@@H](OC(=O)c4ccccc4)[C@H]21)C3(C)C [Taxotere] | further antitumoral effect | – | –
5 | CO[C@@]12[C@H](COC(N)=O)C3=C(C(=O)C(C)=C(N)C3=O)N1C[C@@H]1N[C@@H]12 [mitomycin C] | – | Tumor regression and protection against further tumor challenge | –
6 | CCCC(=O)[O-].[Na+] [sodium butyrate] | – | Tumor regression and protection against further tumor challenge | –
